Assays:
[1] = tested on: A549/ATCC (Non-Small Cell Lung Cancer); experiment: NCI60 screen (SRB); format: cell-based, human; settings: one dose 10 µM, 48 h
RPMI-8226 (Leukemia) = experiment: NCI60 screen (SRB); format: cell-based, human; settings: one dose 10 µM, 48 h
SW-620 (Colon Cancer) = experiment: NCI60 screen (SRB); format: cell-based, human; settings: one dose 10 µM, 48 h
COLO 205 (Colon Cancer) = experiment: NCI60 screen (SRB); format: cell-based, human; settings: one dose 10 µM, 48 h
BT-549 (Breast Cancer) = experiment: NCI60 screen (SRB); format: cell-based, human; settings: one dose 10 µM, 48 h
M14 (Melanoma) = experiment: NCI60 screen (SRB); format: cell-based, human; settings: one dose 10 µM, 48 h
MDA-MB-435 (Melanoma) = experiment: NCI60 screen (SRB); format: cell-based, human; settings: one dose 10 µM, 48 h
UO-31 (Renal Cancer) = experiment: NCI60 screen (SRB); format: cell-based, human; settings: one dose 10 µM, 48 h
[2] = tested on: MCF-7 breast cancer cells; experiment: alamarBlue cell viability assay; format: cell-based; settings: Homo sapiens, MCF7, MCF-7, 72 h, read-out: viable cells
Procedure: Figure 5 Preliminary cell viability data for Series 1: (A) compounds 22a–22g and chalcone 20b and Series 2: (B) compounds 23a–e and chalcone 20b in MCF-7 breast cancer cells. Cell proliferation of MCF-7 cells was determined with an alamarBlue assay (seeding density 2.5 × 10^4 cells/mL per well for 96-well plates). Compound concentrations of either 1 or 0.1 μM for 72 h were used to treat the cells (in triplicate) with control wells containing vehicle ethanol (1% v/v). The mean value ± SEM for three independent experiments is shown. The positive controls used are CA-4 and phenstatin (1.0 μM and 0.1 μM). Statistical analysis was performed using One-way ANOVA with the Sidak multiple comparison test (***, p < 0.001).
HL-60 cells were suspension cells and the seeding density for the viability assay was 25,000 cells/mL. MCF-7 cells (adherent) were cultured in Minimum Essential Media (MEM) with GlutaMAX™-I, supplemented with 1% (v/v) non-essential amino acids, 10% (v/v) fetal bovine serum (FBS), purchased from BD Biosciences (Edmund Halley Road, Oxford, UK), and 1% (v/v) penicillin/streptomycin 5000 U/mL. The MCF-7 cells used in the screening of the compounds during these experiments were mycoplasma-free. The seeding density of MCF-7 in the viability assay was 25,000 cells/mL and 50,000 cells/mL in the FACS assay. Normal breast cells (MCF-10A) (adherent) were cultured in Dulbecco’s Modified Eagle Medium: Nutrient Mixture F-12 (DMEM/F12; Gibco) supplemented with 5% horse serum (Invitrogen, Waltham, MA, USA), 20 ng/mL epidermal growth factor (Merck Millipore, Burlington, MA, USA), 0.5 μg/mL hydrocortisone (Sigma, Kanagawa, Japan), 100 ng/mL cholera toxin (Sigma), 10 μg/mL insulin (Sigma), and penicillin/streptomycin 5000 U/mL (1%) (Gibco, Waltham, MA, USA). […] MDA-MB-231 cells were cultured in Dulbecco’s Modified Eagle Medium, which was supplemented with 10% (v/v) fetal bovine serum (FBS) and 1% (v/v) penicillin/streptomycin 5000 U/mL. When not in use, all cells were kept in liquid nitrogen and frozen in a freezing media made of 90% FBS and 10% DMSO. All cells were grown in an atmosphere of 5% CO2/95% air in T75 culture flasks. The media was changed every 2–3 days and media was always prewarmed to 37 °C. All were sub-cultured every 3–4 days by trypsinization using TrypLE™ Express enzyme when confluence was reached to allow growth, prevent excessive cell death, and minimize the risk of infections derived by over-confluence. For the cell viability assay, the number of cells per milliliter was 25,000 cells/mL while the FACS assay utilized 50,000 cells/mL. Cells were maintained at 37 °C in 5% CO2 in a humidified incubator.
The biochemical assays were performed in triplicate and on at least three independent occasions to facilitate the determination of mean values. For the viability assay, cells were grown until 80% confluent. Adherent cells such as MCF-7, MDA-MB-231, and MCF-10A were trypsinized to detach them from the flask, counted as previously described, and seeded in 96 well plates with a seeding density of 25,000 cells /mL (200 µL of suspension in each well so that the final number of cells per well was 5000) and 1 × 10^4 cells/well seeding density for suspension HL-60 cells. Adherent cells were incubated for 24 h after being seeded in the 96 well plate and treated on the following day, while suspension cells were treated on the same day of the seeding. In both cases, the incubation time after the treatment with the drug was 72 h. After 68 h incubation, the AlamarBlue was added (20 µL in each well) and the incubation time was completed. After 72 h, the change in color was measured by spectrofluorimetry at an excitation wavelength of 544 nm and emission wavelength of 590 nm. AlamarBlue is a cell viability indicator containing a compound called resazurin. AlamarBlue is water soluble, stable in culture media, non-toxic, and is permeable through the cell membrane. […]

SK-OV-3 (Ovarian Cancer) = experiment: NCI60 screen (SRB); format: cell-based, human; settings: one dose 10 µM, 48 h
SK-MEL-28 (Melanoma) = experiment: NCI60 screen (SRB); format: cell-based, human; settings: one dose 10 µM, 48 h
[3] = tested on: HOP-62 (Non-Small Cell Lung Cancer); experiment: NCI60 screen (SRB); format: cell-based, human; settings: one dose 10 µM, 48 h
T-47D (Breast Cancer) = experiment: NCI60 screen (SRB); format: cell-based, human; settings: one dose 10 µM, 48 h
HT29 (Colon Cancer) = experiment: NCI60 screen (SRB); format: cell-based, human; settings: one dose 10 µM, 48 h
HCT-116 (Colon Cancer) = experiment: NCI60 screen (SRB); format: cell-based, human; settings: one dose 10 µM, 48 h
K-562 (Leukemia) = experiment: NCI60 screen (SRB); format: cell-based, human; settings: one dose 10 µM, 48 h
breast cancer panel = experiment: NCI60 screen (SRB), panel mean; format: cell-based, human; settings: BC panel; one dose 10 µM; 48 h
ACHN (Renal Cancer) = experiment: NCI60 screen (SRB); format: cell-based, human; settings: one dose 10 µM, 48 h
PC-3 (Prostate Cancer) = experiment: NCI60 screen (SRB); format: cell-based, human; settings: one dose 10 µM, 48 h

Row | SMILES | growth percent [1] [%] | growth percent (RPMI-8226 (Leukemia)) [%] | growth percent (SW-620 (Colon Cancer)) [%] | growth percent (COLO 205 (Colon Cancer)) [%] | growth percent (BT-549 (Breast Cancer)) [%] | growth percent (M14 (Melanoma)) [%] | growth percent (MDA-MB-435 (Melanoma)) [%] | growth percent (UO-31 (Renal Cancer)) [%] | viability at 0.1 µM ([2]; 0.1 μM) [%] | viability at 1 µM [2] [%] | growth percent (SK-OV-3 (Ovarian Cancer)) [%] | growth percent (SK-MEL-28 (Melanoma)) [%] | growth percent [3] [%] | growth percent (T-47D (Breast Cancer)) [%] | growth percent (HT29 (Colon Cancer)) [%] | growth percent (HCT-116 (Colon Cancer)) [%] | growth percent (K-562 (Leukemia)) [%] | mean growth percentage (breast cancer panel) [%] | growth percent (ACHN (Renal Cancer)) [%] | growth percent (PC-3 (Prostate Cancer)) [%]
1 | COc1ccc(/C=C/C(c2cc(OC)c(OC)c(OC)c2)n2ccnc2)cc1O (stereo not drawn) [Compound 23b, (E)-5-(3-(1H-Imidazol-1-yl)-3-(3,4,5-trimethoxyphenyl)prop-1-en-1-yl)-2-methoxyphenol] | 29.07 | 15.14 | 17.41 | 89.81 | 44.34 | 18.61 | −25.56 | 59.92 | 75 | 74 | 33.54 | 58.86 | 47.25 | 40.62 | 70.97 | 16.67 | 13.63 | 38.1 | 46.34 | 25.28
2 | COc1ccc(C2CC(n3ccnc3)c3cc(OC)c(OC)c(OC)c32)cc1O (stereo not drawn) [Compound 27a, 5-(3-(1H-Imidazol-1-yl)-5,6,7-trimethoxy-2,3-dihydro-1H-inden-1-yl)-2-methoxyphenol] | 55.83 | 94.65 | 62.47 | 106.99 | 90.36 | 73.08 | 5.00 | 79.93 |  |  | 86.31 | 78.29 | 80.77 | 94.34 | 101.76 | 81.13 | 44.70 | 79.1 | 86.36 | 60.69
3 | COc1cc(/C=C/C(/C=C/c2cc(OC)c(OC)c(OC)c2)n2ccnc2)cc(OC)c1OC [Compound 30, 1-((1E,4E)-1,5-bis(3,4,5-trimethoxyphenyl)penta-1,4-dien-3-yl)-1H-imidazole] | 78.93 | 60.48 | 88.00 | 99.42 | 83.42 | 82.03 | 45.63 | 66.56 |  | 77 | 92.06 | 100.52 | 84.91 | 77.54 | 80.30 | 78.18 | 61.41 | 71.5 | 99.92 | 58.09

Source: PMC11769294, “(E)-1-(3-(3-Hydroxy-4-Methoxyphenyl)-1-(3,4,5-Trimethoxyphenyl)allyl)-1H-1,2,4-Triazole and Related Compounds: Their Synthesis and Biological Evaluation as Novel Antimitotic Agents Targeting Breast Cancer” (Pharmaceuticals, 2025)
